Common to all, as to assay: NCI tumour cell line growth inhibition, 48 h
For assay [1], the system named is K-562 leukemia.
Assay [2] has as its system SK-MEL-2 melanoma.
Assay [3] concerns HOP-62 NSCLC.
Assay [4] has as its system MALME-3M melanoma.
Assay [5] deals with A549 NSCLC.
In assay [6] the test system is PC-3 prostate.
Assay [7] concerns SF-268 CNS.
Assay [8] deals with HT29 colon.
The test system of assay [9] is NCI-H226 lung.
Assay [10] relates to HOP-92 NSCLC.

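Exposure lasted 48 hours, with cells grown in 96-well plates and compounds tested at five concentrations. Abbreviation: GI50, concentration required for 50% inhibition of growth. At the TGI there is no net growth.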 Bounds are passed on as bounds.

The source of these data is PubChem BioAssay (NCI).

Turning to `COc1ccc(-c2c(C#N)cnc(N)c2-c2nc3cc(C)c(C)cc3[nH]2)cc1`, the GI50 in assay [1] is 6.03 µM; in assay [2] it was 10.8 µM; in assay [3] it was 3.65 µM; in assay [4], 6 µM; in assay [5], 6.54 µM; in [6], 8.86 µM. Further, the GI50 in assay [7] was 9.8 µM; in assay [8] it was 4.79 µM; in assay [9] it was 16.4 µM; in [10], 2.65 µM. In addition, the TGI is over 100 µM in assay [1]; 98 µM in assay [2]; 14.4 µM in assay [3]; 48.3 µM in assay [4]; 72.4 µM in assay [5]; over 100 µM in [6]. Moreover, the TGI in assay [7] is 65.7 µM; in assay [8] it was over 100 µM; in [9], over 100 µM; in [10], 16.3 µM.
With `COc1ccc2oc3c(ccc[n+]3C)c(=O)c2c1`, the TGI in assay [1], in assay [2], in [3], in [4], in assay [5] and in [6] was over 100 µM throughout. Also, the TGI in assay [7], in assay [8], in assay [9] and in assay [10] was over 100 µM throughout.
Take `CC(CNc1nc(Nc2ccc(Cl)c(Cl)c2)nc(C(Cl)(Cl)Cl)n1)N(C)C` (centres undefined): the GI50 is 1.79 µM in assay [4]; 1.76 µM in assay [6]; 1.66 µM in assay [8]; 1.8 µM in assay [9]; 1.35 µM in assay [10]. In addition, the TGI in assay [4] worked out at 3.79 µM; in assay [6] it was 3.84 µM; in [8], 3.11 µM; in assay [9], 3.51 µM; in assay [10], 4.16 µM.
As for `COc1cc2c(cc1O)N=C[C@@H]1CCC(O)N1C2=O` (mixture of isomers), the TGI in [1] was found to be 24.2 µM; in assay [2] it was 0.748 µM; in assay [3], 2.91 µM; in assay [4], 1.42 µM; in assay [5], 71.6 µM; in assay [7], 6.25 µM. The TGI in [8] stood at 72.9 µM; in assay [9] it was 2.08 µM; in assay [10] it was 2.46 µM.
With `CC(=O)Nc1nc(C)c(-c2cc3c(c(S(C)(=O)=O)c2)C(=O)N([C@@H](C)C2CC2)C3)s1`, the GI50 in assay [1] is 34.2 µM; in [2], 21.9 µM; in assay [3] it was 28.2 µM; in assay [4], 23.6 µM; in assay [5] it was 28 µM; in assay [6], 31.2 µM. For the same compound, the GI50 in [7] was 20.4 µM; in assay [8], 31 µM; in assay [9], 28.7 µM; in [10], 15.9 µM. Also, the TGI in assay [1] was over 100 µM; in [2] it was 67.7 µM; in [3], over 100 µM; in assay [4], over 100 µM; in assay [5], over 100 µM; in [6], over 100 µM. In addition, the TGI in assay [7] is over 100 µM; in [8] it was over 100 µM; in assay [9] it was over 100 µM; in assay [10] it was 64.1 µM.
Regarding `CC(=O)O[C@@H]1CN(S(=O)(=O)c2ccc(C)cc2)C[C@@H]1C1CCCCC1`, the TGI in assay [1] was over 100 µM; in [2] it was 32.2 µM; in [3], 66.7 µM; in [6], 46.4 µM; in assay [7], 52.5 µM; in assay [8], 74 µM. For the same compound, the TGI was 34.6 µM in assay [9] and 33.8 µM in [10].
With `CCc1ncc(C(C)(O)c2ccccc2)n1Cc1ccccc1` (centres undefined), the TGI in assay [1], in [2], in [4], in assay [5], in assay [6] and in assay [7] was over 100 µM in each case. Also, the TGI in assay [8], in assay [9] and in assay [10] was over 100 µM in each case.
Regarding `CC1CC(c2ccc([N+](=O)[O-])cc2)=Nc2ccccc2S1=O` (centres undefined), the TGI is 75 µM in assay [1]; over 100 µM in [2]; 75 µM in [3]; 41.4 µM in [5]; 44.1 µM in assay [7]; 27.2 µM in assay [8]. Also, the TGI in [9] was 80.4 µM; in assay [10], over 100 µM.
